Test results published in patent US8143260B2, “Tricyclic amine compound” (Research Foundation Itsuu Laboratory, priority 2007, dated 2012).
“And” between values parts separate entries of the source, which are not always exact repeats. Equal entries are not always repeated.

System: human acute promyelocytic leukemia cell strain HL-60
Experiment: Differentiation induction of HL-60 cells (NBT-reducing ability); enhancement of the retinoid action of Am80
Type: cell-based
Settings: for Differentiation induction ratio (%), Am80 1 nM + Test compound: four days; for Differentiation induction ratio (%), Test compound alone: test compound alone 100 nM
Method: Cells of human acute promyelocytic leukemia cell strain HL-60 were cultured in a CO2 incubator (5% CO2, 37° C.) using the RPMI medium containing 5% FBS. Differentiation inducing action on the HL-60 cells induced by 4-[(5,6,7,8-tetrahydro-5,5,8,8-tetramethyl-2-naphthalenyl)carbamoyl]benzoic acid (Am80) was evaluated on the basis of ability to reduce nitroblue tetrazolium (NBT) determined by observing differentiation from promyelocytic cells into granulocytic cells as an index. The cells that entered into the logarithmic phase and reached a substantially confluent state were centrifuged at 1000 rpm for 5 minutes, and the culture supernatant was removed. The cell pellet was suspended in fresh RPMI medium containing 5% FBS at a density of 8.0×10^4 cells/ml, then the suspension was added with a test compound dissolved in DMSO at an intended concentration, and the cells were cultured for four days and then used for the experiment. The samples were prepared so as to have the same DMSO concentration.
Cell count of the cells after the culture for a predetermined period was determined by a cell counting method using a blood cell counting chamber. The NBT-reducing ability was obtained as follows. NBT was dissolved in phosphate buffered saline (PBS(−)) at a concentration of 0.2%, and the solution was added with an equivalent volume of the RPMI medium containing 5% FBS. The mixture was added with phorbol 12-myristate 13-acetate (tPA) at a concentration of 0.2 μM (about 200 ng) to prepare a reagent solution. The collected cells were centrifuged at 1000 rpm for 5 minutes, the supernatant was removed, and the remained cell pellet was added with the reagent solution. The mixture was incubated on a water bath at 37° C. for 20 minutes, and then NBT-reduced stained positive cells were counted by using the counting chamber to calculate a differentiation induction ratio. The same test was performed with allowing the compounds of the present invention prepared in the aforementioned examples (all were carboxylic acid compounds) to coexist with Am80 to confirm action of the compounds of the present invention for enhancing the retinoid action of Am80. As a compound having a retinoid action enhancing action (positive control), 4-[2,3-(2,5-dimethyl-2,5-hexano)dibenzo[b,f][1,4]thiazepin-11-yl]benzoic acid (HX630, Japanese Patent Unexamined Publication No. 10-59951) was used.

[1] = Am80 1 nM + test compound 1 × 10^−7M
[2] = Am80 1 nM + test compound 1 × 10^−8M
[3] = Am80 1 nM + test compound 1 × 10^−9M
[4] = cultured four days, NBT-positive cells

Row | Compound | Differentiation induction ratio (%), Am80 alone (Am80 alone 1 nM, cultured four days, NBT-positive cells) | Differentiation induction ratio (%), Am80 1 nM + Test compound [1] | Differentiation induction ratio (%), Am80 1 nM + Test compound [2] | Differentiation induction ratio (%), Am80 1 nM + Test compound [3] | Differentiation induction ratio (%), Test compound alone [4]
1 | CC1(C)CCC(C)(C)c2cc(NC(=O)c3ccc(C(=O)O)cc3)ccc21 [Am80, 4-[(5,6,7,8-tetrahydro-5,5,8,8-tetramethyl-2-naphthalenyl)carbamoyl]benzoic acid, reference compound] | 16.9% and 15.9% | – | – | – | –
2 | CCN(c1ccc(C(=O)O)cc1)c1cc2c3c(c1)CCCC3CCC2 [Example 3, 4-[N-Ethyl-(5,6,6a,7,8,9-hexahydro-4H-2-phenalenyl)amino]benzoic acid] | – | 25.8% | 26.4% | 20.5% | 1.5%
3 | O=C(O)c1ccc(N(CC2CC2)c2cc3c4c(c2)CCCC4CCC3)cc1 [Example 4, 4-[N-Cyclopropylmethyl-(5,6,6a,7,8,9-hexahydro-4H-2-phenalenyl)amino]benzoic acid] | – | 82.9% | 37.5% | 23.9% | 1.9%
4 | CCN(c1ccc(C(=O)O)cc1)c1cc2c3c(c1)CCCCC3CCCC2 [Example 19, 4-[N-Ethyl-(5,6,7,7a,8,9,10,11-octahydro-4H-2-benzo[ef]heptalenyl)amino]benzoic acid] | – | 85.4% | 44.6% | 31.8% | 2.2%
5 | O=C(O)c1ccc(N(CC2CC2)c2cc3c4c(c2)CCCCC4CCCC3)cc1 [Example 20, 4-[N-Cyclopropylmethyl-(5,6,7,7a,8,9,10,11-octahydro-4H-2-benzo[ef]heptalenyl)amino]benzoic acid] | – | 89.8% | 54.8% | 35.2% | 1.4%
6 | CC1(C)CCC(C)(C)c2cc3c(cc21)Sc1ccccc1N=C3c1ccc(C(=O)O)cc1 [HX630, 4-[2,3-(2,5-dimethyl-2,5-hexano)dibenzo[b,f][1,4]thiazepin-11-yl]benzoic acid, reference compound] | – | 72.3% | 27.8% | 20.4% | 1.6%
